This note sets out measurements from patent publication US20040122059A1, “PPAR-gamma ligands in the treatment of asthma and allergies” (The Penn State Research Foundation, priority 2002, published 2004).

Values joined by “and” are separate entries in the source; they are usually repeats but may differ in a detail not shown here. Identical values can stand only once.

Experiment [1] deals with murine model of allergic asthma. Kind of experiment: OVA-induced allergic asthma, lung histopathology (asthma severity). In kind it is in vivo, Balb/c mice. To be noted: for Asthma severity (total histopathology score 0-6): 0.12 μM Ciglitazone/daily per mouse in diet from one week before induction. Here is the method: Asthma was induced in the mice as described (Zhang et al. 1999. Immunity 11: 473). Briefly mice were injected intraperitoneally with 10 µg of OVA in Alum twice on day 1 and 5 of asthma induction (primed). On day 10, mice were challenged intranasally with OVA in sterile saline, every day for three days (40 μg total). In an alternative protocol the mice were only challenged intranasally (unprimed) with OVA for three consecutive days. Asthma induction was effective with or without the use of immunization (Alum and OVA injections). Two weeks after asthma induction (the day after the last intranasal challenge) the mice were sacrificed. Two different Ciglitazone treatments were done. […] The mice continued on these diets for the remainder of the study. […] Asthma severity. The lungs were fixed in formalin and sent to the Penn State University Animal Diagnostic Laboratories for sectioning and staining with hematoxylin and eosin. The sections were scored blindly on a scale of 0 to 3 for inflammation and 0-3 for epithelial thickening. […] The inflammation and epithelial scores for each section were added together for a total histopathology score ranging from 0-6. The results are presented as means±SEMs. […] In this model, mice are initially exposed to OVA in complex with Alum intraperitoneally, then challenged intranasally with OVA. This protocol usually leads to increased inflammatory cell infiltration into the lung, thickening of the epithelial cells lining the bronchioles of the lung, mucous secretion and in most cases, increased presence of circulating serum IgE. These symptoms highlight the predominant TH2 nature of this disease. Mice (Balb/c) were primed and with OVA intranasally as described in the Materials and Methods section. Twenty-four hours after the final intranasal challenge, mice were analyzed for immunological symptoms of allergic asthma. […]

A further experiment relates to splenocytes. Description: Antigen specific cytokine production and proliferation of splenocytes from treated mice restimulated in vitro with OVA. It is filed as in vivo, Balb/c mice. As to conditions: for Proliferation: [3H]thymidine. Here is the method: Measurement of lymphocyte proliferation and cytokine production. Th cells were cultured in 96 well plates for proliferation assays and 24 well plates for supernatants (Corning Costar, Corning, N.Y.). After 72 h, supernatants were collected for ELISAs. For proliferation assays, 0.4 μCi of [3H]thymidine (ICN, Costa Mesa, Calif.) was added to each well and the cells were incubated for an additional 18 h. Radioactive thymidine incorporation was determined by liquid scintillation using a Beta plate Counter. Mouse IL-2, IL-4, IL-5 and IFN-γ production were detected using ELISA kits from Pharmingen, following the instructions provided. […] Asthma was induced in the mice as described (Zhang et al. 1999. Immunity 11: 473). Briefly mice were injected intraperitoneally with 10 µg of OVA in Alum twice on day 1 and 5 of asthma induction (primed). On day 10, mice were challenged intranasally with OVA in sterile saline, every day for three days (40 μg total). In an alternative protocol the mice were only challenged intranasally (unprimed) with OVA for three consecutive days. Asthma induction was effective with or without the use of immunization (Alum and OVA injections). Two weeks after asthma induction (the day after the last intranasal challenge) the mice were sacrificed. Two different Ciglitazone treatments were done. […] The mice continued on these diets for the remainder of the study.

The subject of another experiment is TH1 cells. Kind of experiment: Cytokine production by TH1-primed DO11.10 CD4+ T cells stimulated with PMA and ionomycin. In kind it is cell-based, mouse. As to conditions: PGJ2 10 mM, CLA 5 mM, 72 h supernatant ELISA. Here is the method: (§1) TH cell cultures. Lymph node and spleen cells from the DO11.10 TCR transgenic mice were removed and CD4 positive cells were isolated using the CD4 Immunocolumns and the manufacturer's instructions (Cedarlane labs, Homby, Canada). CD4 positive T cells (95-98% pure) were cultured in vitro with OVA and mitomycin C treated splenocytes from congenic mice. The cultures were incubated under neutral conditions (TH0 priming) or with rIL-4 and anti-IFN-γ antibodies (TH2 priming), or with rIL-12 (TH1 priming). After 4 days (4d) in culture the cells were collected and dead splenocytes were removed by centrifugation over histopaque. […] T cells were collected and recultured with rIL-2 (Pharmingen) for 3 d to expand the T cells. Cells were then collected, washed and stimulated for proliferation and cytokine synthesis with phorbal myristiyl acetate (PMA, Sigma, St. Louis, Mo.) and ionomycin (Sigma) in the presence of PJG2, conjugated linoleic acid (CLA) or control treated.
(§2) Measurement of lymphocyte proliferation and cytokine production. Th cells were cultured in 96 well plates for proliferation assays and 24 well plates for supernatants (Corning Costar, Corning, N.Y.). After 72 h, supernatants were collected for ELISAs. For proliferation assays, 0.4 μCi of [3H]thymidine (ICN, Costa Mesa, Calif.) was added to each well and the cells were incubated for an additional 18 h. Radioactive thymidine incorporation was determined by liquid scintillation using a Beta plate Counter. Mouse IL-2, IL-4, IL-5 and IFN-γ production were detected using ELISA kits from Pharmingen, following the instructions provided. The ELISA detection limits were 25 pg/ml IL-2, 62 pg/ml IL-4, 312 pg/ml IL-5, and 1000 pg/ml IFN-γ.
(§3) The present inventors decided to test if T cells are direct targets of PPAR-γ ligands. Purified CD4+T cells carrying the transgenic TcR for OVA (DO11.10) were cultured in vitro with OVA and mitomycin C treated splenocytes under neutral conditions (THO priming) or with rIL-4 and anti-IFN-γ antibodies (TH2 priming), or with rIL-12 (TH1 priming). Following 4 days of initial culture, cells were isolated and expanded in rIL-2. These expanded antigen specific T cells were stimulated in the presence or absence of PJG2, a PPAR-γ ligand and cells analyzed for proliferation and cytokine synthesis (Table 1). As previously characterized, cells initially stimulated under TH1 conditions (TH1 cells) secreted more IFN-γ and IL-2 and less IL-4 and IL-5 than those initially stimulated under TH2 conditions (TH2 cells). The TH1 and TH2 cells were greater than 95% CD4+and carried the transgenic TcR (data not shown). The PPAR-γ ligand PGJ2 regulated cytokine production in both TH1 and TH2 cells. PGJ2 inhibited IL-4 and IL-5 production in TH1 cells and inhibited IFN-γ, IL-2, and IL-5 production in TH2 cells (Table 1).
(In general: In an ELISA, binding on a coated surface is turned into a signal by an enzyme label.)

A further experiment concerns TH2 cells. Description: Cytokine production by TH2-primed DO11.10 CD4+ T cells stimulated with PMA and ionomycin. In kind it is cell-based, mouse. As to conditions: PGJ2 10 mM, CLA 5 mM, 72 h supernatant ELISA. As for the experimental part: as §1, §2, §3
Setting [2] is: Primed mice, late Ciglitazone treatment.

Turning to `CC1(COc2ccc(CC3SC(=O)NC3=O)cc2)CCCCC1` (stereo not shown) [Ciglitazone], the “Asthma severity (total histopathology score 0-6)” value in experiment [1] (PRIMED mice (OVA/Alum i.p., then intranasal OVA)) was 1+/−0.3 and 1.0 ± 0.3. Moreover, the “Asthma severity (total histopathology score 0-6)” value in experiment [1] (UNPRIMED mice, intranasal OVA challenge only) is 0.8+/−0.2 and 0.8±0.2. Moreover, the “Histopathology score of representative lung section (FIG. 1B)” value in experiment [1] (representative lung, Ciglitazone treated) turned out to be 1. Moreover, in the experiment on splenocytes (Primed mice fed Ciglitazone), the IL-5 was 903 ± 87 pg/mL and the Proliferation worked out at 10649 ± 492 CPM. In addition, in the experiment on splenocytes (setting [2]), the IFN-γ stood at 4063 ± 170 pg/mL, the IL-4 is 395 ± 92 pg/mL, the IL-5 came out at 875 ± 79 pg/mL and the Proliferation is given as 10579 ± 1477 CPM.
As for `CCCCC/C=C/C=C1/C(=O)C=C[C@@H]1C/C=C\CCCC(=O)O` [PGJ2, 15-deoxy-Delta(12,14)-prostaglandin J(2)], in the experiment on TH1 cells, the IFN-γ worked out at 14370 ± 250 pg/mL and the IL-2 turned out to be 512 ± 1 pg/mL. Further, in the experiment with TH2 cells, the IL-4 stood at 1861 ± 28 pg/mL.
In the experiment on TH1 cells, conjugated linoleic acid [CLA] had an IFN-γ of 14689 ± 370 pg/mL, an IL-2 of 522 ± 20 pg/mL and an IL-5 of 150 ± 6 pg/mL. Moreover, in the experiment with TH2 cells, the IFN-γ amounted to 5592 ± 306 pg/mL, the IL-2 amounted to 224 ± 4 pg/mL, the IL-4 came to 1863 ± 62 pg/mL and the IL-5 was 240 ± 52 pg/mL.
